According to ChEMBL document CHEMBL1201862, “PubChem BioAssay data set” (2004):
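Five concentrations, 48 hours, 96-well plates. GI50 marks 50% less growth.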 Active and inactive are the calls of the source. No stated cut-off is given here; in the data, active = GI50 up to about 1.1 µM and inactive = higher.

Legend:
Assay in all cases: DTP human tumour cell line panel, 48 h
RXF 393 = system: RXF 393
HCT-116 = system: HCT-116
HL-60 = system: HL-60
UO-31 = system: UO-31
OVCAR-5 = system: OVCAR-5
NCI-H226 = system: NCI-H226
BT-549 = system: BT-549
NCI/ADR-RES = system: NCI/ADR-RES
IGROV-1 = system: IGROV-1
EKVX = system: EKVX
UACC-257 = system: UACC-257
COLO 205 = system: COLO 205
NCI-H460 = system: NCI-H460
Malme-3M = system: Malme-3M
MCF7 = system: MCF7
786-0 = system: 786-0
TK-10 = system: TK-10
HCC 2998 = system: HCC 2998
SNB-75 = system: SNB-75
SK-MEL-28 = system: SK-MEL-28

Compound	GI50 (RXF 393)	GI50 (HCT-116)	GI50 (HL-60)	GI50 (UO-31)	GI50 (OVCAR-5)	GI50 (NCI-H226)	GI50 (BT-549)	GI50 (NCI/ADR-RES)	GI50 (IGROV-1)	GI50 (EKVX)	GI50 (UACC-257)	GI50 (COLO 205)	GI50 (NCI-H460)	GI50 (Malme-3M)	GI50 (MCF7)	GI50 (786-0)	GI50 (TK-10)	GI50 (HCC 2998)	GI50 (SNB-75)	GI50 (SK-MEL-28)
CC1CC(=O)Nc2nc3ccccc3n21 (stereo not drawn)	> 100 µM (inactive)	> 100 µM (inactive)	> 100 µM (inactive)	> 100 µM (inactive)	> 100 µM (inactive)	> 100 µM (inactive)	> 100 µM (inactive)	> 100 µM (inactive)	> 100 µM (inactive)	0.953 µM (active)	> 100 µM (inactive)	> 100 µM (inactive)	> 100 µM (inactive)	> 100 µM (inactive)	> 100 µM (inactive)	> 100 µM (inactive)	> 100 µM (inactive)			
COc1ccccc1NCc1nnc(CCCCCCCCc2nnc(CNc3ccccc3OC)o2)o1	> 100 µM (inactive)	> 100 µM (inactive)		> 100 µM (inactive)	> 100 µM (inactive)		> 100 µM (inactive)	> 100 µM (inactive)		> 100 µM (inactive)	> 100 µM (inactive)	> 100 µM (inactive)	> 100 µM (inactive)	> 100 µM (inactive)	> 100 µM (inactive)	> 100 µM (inactive)	> 100 µM (inactive)	> 100 µM (inactive)	> 100 µM (inactive)	
CCN(CC)c1ccc2cc(C(N)=O)c(=N)oc2c1	55 µM (inactive)	35.1 µM (inactive)	36.5 µM (inactive)		51.5 µM (inactive)	19.7 µM (inactive)	52.5 µM (inactive)	53.1 µM (inactive)	21.1 µM (inactive)		> 100 µM (inactive)	35.2 µM (inactive)	27 µM (inactive)			30.1 µM (inactive)		5.36 µM (inactive)	26.5 µM (inactive)	31.3 µM (inactive)
COc1cc(C(=O)O)c(-c2cc3c(cc2C=O)OCO3)c(OC)c1OC		> 10 µM (inactive)	> 10 µM (inactive)				> 10 µM (inactive)	> 10 µM (inactive)	> 10 µM (inactive)		> 10 µM (inactive)	> 10 µM (inactive)		> 10 µM (inactive)	> 10 µM (inactive)	> 10 µM (inactive)	> 10 µM (inactive)	> 10 µM (inactive)	> 10 µM (inactive)	> 10 µM (inactive)
COc1cc(S(=O)(=O)Nc2ccc(-c3csc(/N=C\c4cccc(Oc5ccccc5)c4)n3)cc2)ccc1Cl	20.1 µM (inactive)	14.6 µM (inactive)	23.2 µM (inactive)	29.9 µM (inactive)	26.3 µM (inactive)	47.5 µM (inactive)	32.7 µM (inactive)	96.4 µM (inactive)	28.8 µM (inactive)	8.39 µM (inactive)		34.7 µM (inactive)		47.8 µM (inactive)	5.2 µM (inactive)	5.58 µM (inactive)			30.8 µM (inactive)	36.1 µM (inactive)
COc1ccc2c(c1)CC1COc3cc(OC)ccc3C1O2 (stereo not drawn)		> 100 µM (inactive)		> 100 µM (inactive)	> 100 µM (inactive)	23 µM (inactive)	44.8 µM (inactive)	72.6 µM (inactive)	> 100 µM (inactive)	> 100 µM (inactive)	> 100 µM (inactive)	> 100 µM (inactive)		> 100 µM (inactive)	> 100 µM (inactive)	38.1 µM (inactive)	> 100 µM (inactive)	> 100 µM (inactive)		
COc1ccc2c(c1)c1c(n2CCN2CCCCC2)-c2ccccc2CC1		16.2 µM (inactive)		13.3 µM (inactive)	16.9 µM (inactive)	5.2 µM (inactive)	23.1 µM (inactive)	16.7 µM (inactive)	11.6 µM (inactive)	17.9 µM (inactive)	17.9 µM (inactive)	13.6 µM (inactive)	14.5 µM (inactive)	14.6 µM (inactive)	14.3 µM (inactive)	18.6 µM (inactive)	14 µM (inactive)	6.78 µM (inactive)	14.6 µM (inactive)	17.9 µM (inactive)
Cc1ccc(C(=O)N/N=C(\N=N\c2cccc([N+](=O)[O-])c2)c2ccc(N(C)C)cc2)cc1		> 100 µM (inactive)	27.9 µM (inactive)	61.2 µM (inactive)	> 100 µM (inactive)	> 100 µM (inactive)	47.8 µM (inactive)	41.8 µM (inactive)	> 100 µM (inactive)	25.2 µM (inactive)	58.3 µM (inactive)	> 100 µM (inactive)	57.7 µM (inactive)		> 100 µM (inactive)	> 100 µM (inactive)	> 100 µM (inactive)	> 100 µM (inactive)		> 100 µM (inactive)
